Holding throughout (settings): synthetic library passage 3, intravenous, relative to wild-type AAV9
Test [1] deals with brain, spinal cord, and DRG of the NHPs. Nature of the test: NGS fold enrichment of synthetic library (passage 3) in NHPs, first cross-species screen. It counts as in vivo, cynomolgus macaques (Macaca fascicularis). A digest of the protocol:
(§1)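 Synthetic capsid library (passage 3) was given intravenously […] to NHPs aged 2-4 years and to BALB/c and C57Bl/6 mice (n=3 each, 6-8 weeks). After about 28 days in vivo, tissue RNA was RT-PCR amplified and NGS-sequenced; values are fold enrichment per variant relative to wild-type AAV9.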

In test [2] the test system is brain. Nature of the test: NGS fold enrichment of synthetic library (passage 3) in BALB/c mice, first cross-species screen. In kind it is in vivo. A digest of the protocol: as §1
Test [3] deals with brain. Nature of the test: NGS fold enrichment of synthetic library (passage 3) in C57Bl/6 mice, first cross-species screen. It counts as in vivo. The procedure, abridged:
as §1

Setting [4] is: RNA from spinal cord of NHPs, NGS.
Setting [5] is: RNA from brain of BALB/c mice, NGS.
Setting [6] is: RNA from brain of C57Bl/6 mice, NGS.

For the sequence GMTSHSVSGQNQQT, in test [1] (RNA NGS, brain of NHPs), the “Fold enrichment over AAV9 in the brain of NHPs” value is 1.850 fold. Further, the “Fold enrichment over AAV9 in the spinal cord of NHPs” value in test [1] (RNA NGS, spinal cord of NHPs) stood at 2.732 fold. In addition, the “Fold enrichment over AAV9 in the brain of Mice (BALB/c)” value (from here on “Fold enrichment over AAV9 … (BALB/c)”) in test [2] (RNA NGS, brain of BALB/c mice) amounted to 0.154 fold. In test [3] (RNA NGS, brain of C57Bl/6 mice), the “Fold enrichment over AAV9 in the brain of Mice (C57Bl/6)” value (shortened to “Fold enrichment over AAV9 … (C57Bl/6)”) stood at 0.220 fold.
As to GHMKGVTSGQNQQT, in test [1] (RNA NGS, brain of NHPs), the “Fold enrichment over AAV9 in the brain of NHPs” value turned out to be 1.081 fold. Further, the “Fold enrichment over AAV9 in the spinal cord of NHPs” value in test [1] (RNA NGS, spinal cord of NHPs) worked out at 2.814 fold. In addition, the “Fold enrichment over AAV9 … (BALB/c)” value in test [2] (RNA NGS, brain of BALB/c mice) is reported as 0.413 fold. For the same sequence, in test [3] (RNA NGS, brain of C57Bl/6 mice), the “Fold enrichment over AAV9 … (C57Bl/6)” value is listed as 0.807 fold.
For the sequence GSGQNQRLHGVDQT, the “Fold enrichment over AAV9 in the brain of NHPs” value in test [1] (RNA from brain of NHPs, NGS) came to 1.318 fold. Also, in test [1] (setting [4]), the “Fold enrichment over AAV9 in the spinal cord of NHPs” value was determined as 4.655 fold. Also, the “Fold enrichment over AAV9 … (BALB/c)” value in test [2] (setting [5]) turned out to be 0.341 fold. Moreover, the “Fold enrichment over AAV9 … (C57Bl/6)” value in test [3] (setting [6]) was 0.459 fold.
Consider GAGVHMVSGQNQQT, for which, in test [1] (RNA NGS, brain of NHPs), the “Fold enrichment over AAV9 in the brain of NHPs” value was 1.987 fold. In addition, the “Fold enrichment over AAV9 in the spinal cord of NHPs” value in test [1] (RNA NGS, spinal cord of NHPs) is given as 6.488 fold. Besides, in test [2] (RNA NGS, brain of BALB/c mice), the “Fold enrichment over AAV9 … (BALB/c)” value worked out at 0.791 fold. Moreover, in test [3] (RNA NGS, brain of C57Bl/6 mice), the “Fold enrichment over AAV9 … (C57Bl/6)” value is 1.055 fold.
Consider GRGQHVSVANNQQT, for which the “Fold enrichment over AAV9 in the brain of NHPs” value in test [1] (RNA from brain of NHPs, NGS) stood at 1.152 fold. In test [1] (setting [4]), the “Fold enrichment over AAV9 in the spinal cord of NHPs” value is 1.896 fold. For the same sequence, the “Fold enrichment over AAV9 … (BALB/c)” value in test [2] (setting [5]) is on record as 0.589 fold. The “Fold enrichment over AAV9 … (C57Bl/6)” value in test [3] (setting [6]) was 1.032 fold.
Consider GGLSHVMSGQNQQT, for which, in test [1] (RNA NGS, brain of NHPs), the “Fold enrichment over AAV9 in the brain of NHPs” value is reported as 1.875 fold. Besides, the “Fold enrichment over AAV9 in the spinal cord of NHPs” value in test [1] (RNA NGS, spinal cord of NHPs) amounted to 0.403 fold. Further, the “Fold enrichment over AAV9 … (BALB/c)” value in test [2] (RNA NGS, brain of BALB/c mice) was found to be 0.378 fold. Moreover, the “Fold enrichment over AAV9 … (C57Bl/6)” value in test [3] (RNA NGS, brain of C57Bl/6 mice) turned out to be 0.885 fold.
With GNRDRPSSGQNQQT, the “Fold enrichment over AAV9 in the brain of NHPs” value in test [1] (RNA from brain of NHPs, NGS) was 1.239 fold. Also, the “Fold enrichment over AAV9 in the spinal cord of NHPs” value in test [1] (setting [4]) is 3.947 fold. Besides, the “Fold enrichment over AAV9 … (BALB/c)” value in test [2] (setting [5]) came to 0.178 fold. Besides, the “Fold enrichment over AAV9 … (C57Bl/6)” value in test [3] (setting [6]) is listed as 0.298 fold.
In the case of GLGAYQSSGQNQQT, the “Fold enrichment over AAV9 in the brain of NHPs” value in test [1] (RNA NGS, brain of NHPs) amounted to 1.574 fold. Further, the “Fold enrichment over AAV9 in the spinal cord of NHPs” value in test [1] (RNA NGS, spinal cord of NHPs) was determined as 0.696 fold. In addition, in test [2] (RNA NGS, brain of BALB/c mice), the “Fold enrichment over AAV9 … (BALB/c)” value was determined as 0.688 fold. In test [3] (RNA NGS, brain of C57Bl/6 mice), the “Fold enrichment over AAV9 … (C57Bl/6)” value is on record as 1.407 fold.
Taken in the same sequence, the figures for GVHTHLPSGQNQQT were 1.952 fold, 1.364 fold, 0.796 fold and 1.414 fold.
Taken in the same sequence, the figures for GSGQSHRSELNQQT were 1.585 fold, 11.974 fold, 0.256 fold and 0.668 fold.
On to GSGQNQYSIPVAQT, for which the “Fold enrichment over AAV9 in the brain of NHPs” value in test [1] (RNA NGS, brain of NHPs) came out at 1.891 fold. The “Fold enrichment over AAV9 in the spinal cord of NHPs” value in test [1] (RNA NGS, spinal cord of NHPs) worked out at 1.194 fold. In addition, the “Fold enrichment over AAV9 … (BALB/c)” value in test [2] (RNA NGS, brain of BALB/c mice) is 0.297 fold. Moreover, the “Fold enrichment over AAV9 … (C57Bl/6)” value in test [3] (RNA NGS, brain of C57Bl/6 mice) turned out to be 0.511 fold.
Taken in the same sequence, the figures for GSGQSHRQPENQQT were 1.529 fold, 2.153 fold, 0.159 fold and 0.209 fold.
Turning to GSSTTIVSGQNHQT, the “Fold enrichment over AAV9 in the brain of NHPs” value in test [1] (RNA NGS, brain of NHPs) came out at 1.411 fold. Moreover, in test [1] (RNA NGS, spinal cord of NHPs), the “Fold enrichment over AAV9 in the spinal cord of NHPs” value is 0.000 fold. Moreover, in test [2] (RNA NGS, brain of BALB/c mice), the “Fold enrichment over AAV9 … (BALB/c)” value is 0.672 fold. In addition, the “Fold enrichment over AAV9 … (C57Bl/6)” value in test [3] (RNA NGS, brain of C57Bl/6 mice) stood at 0.993 fold.
In the case of GSGQALLSTGNQQT, in test [1] (RNA from brain of NHPs, NGS), the “Fold enrichment over AAV9 in the brain of NHPs” value came to 1.377 fold. Besides, in test [1] (setting [4]), the “Fold enrichment over AAV9 in the spinal cord of NHPs” value came to 0.847 fold. In test [2] (setting [5]), the “Fold enrichment over AAV9 … (BALB/c)” value is given as 0.370 fold. Besides, in test [3] (setting [6]), the “Fold enrichment over AAV9 … (C57Bl/6)” value amounted to 0.536 fold.
As to GKSFVPQSGQNQQT, in test [1] (RNA NGS, brain of NHPs), the “Fold enrichment over AAV9 in the brain of NHPs” value was determined as 1.489 fold. Moreover, in test [1] (RNA NGS, spinal cord of NHPs), the “Fold enrichment over AAV9 in the spinal cord of NHPs” value is 2.502 fold. Besides, in test [2] (RNA NGS, brain of BALB/c mice), the “Fold enrichment over AAV9 … (BALB/c)” value was found to be 0.430 fold. Besides, the “Fold enrichment over AAV9 … (C57Bl/6)” value in test [3] (RNA NGS, brain of C57Bl/6 mice) is 1.798 fold.
Taken in the same sequence, the figures for GSGQNQQTTSSNMT were 1.099 fold, 0.569 fold, 0.698 fold and 0.638 fold.

The values are drawn from patent publication US20260250318A1, “COMPOSITIONS AND METHODS FOR CROSSING THE BLOOD BRAIN BARRIER” (VOYAGER THERAPEUTICS, INC., priority 2022, published 2026).
